Tested on: Hartley guinea pigs
Details: guinea pig, in vivo

CCCCN1CCCCC1C(=O)Nc1c(C)cccc1C (centres unmarked) [bupivacaine]
Duration, time for full recovery: ~90 min

CCN(CC)CC(=O)Nc1c(C)cccc1C [lidocaine]
Duration, time for full recovery: ≈ 30 minutes

Source: patent US20040259794A1 (priority 1999, published 2004)
